According to paper PMC10743653, “Combined In Silico and In Vitro Analyses to Assess the Anticancer Potential of Thiazolidinedione–Thiosemicarbazone Hybrid Molecules” (International Journal of Molecular Sciences, 2023):

Tests used:
T98G cells = experiment: MTT assay, T98G; assay type: cell-based, human; details: for IC50: Homo sapiens, T98G, MTT, 24 h treatment, mean ± SD; for SI (selectivity index): IC50 CCD 841 CoTr divided by IC50 T98G
Procedure: (§1) The effects of TZD–TSCs 2–5 on the cellular viability of a panel of cell lines were investigated through an 3-(4,5-dimethylthiazol-2-yl)-2,5-diphenyl-2H-tetrazolium bromide (MTT) assay, following a 24 h treatment with the compounds. The panel consisted of three solid tumor cells: T98G (glioblastoma multiforme), HepG2 (hepatocellular carcinoma, epithelial), and HT29 (colon adenocarcinoma, epithelial), as well as noncancerous cells CCD 841 CoTr (normal colon, epithelial).
(§2) Primary single dose screenings of TZD–TSCs 2–5 were performed at a concentration of 200 μg/mL, and those that elicited a greater than 80% inhibition of cell proliferation were analyzed at several concentrations, to find their half-maximal inhibitory concentration (IC50). The IC50 values, reported as the mean ± SD in Table 2, indicate the concentration of the tested compound that inhibits the growth/viability of the cancer cell population by 50%. In this specific case of an MTT assay, which measures the activity of mitochondrial dehydrogenases (as an indicator of cell viability), the IC50 values stand for the concentration that inhibits the metabolic activity of cells by 50%.
(§3) Human colon adenocarcinoma cells, HT29 (ATCC no. HTB-38), derived from a grade I tumor, were cultured in roswell park memorial institute Medium (RPMI) 1640 medium, supplemented with 10% fetal calf serum (FCS) (GibcoTM, Paisley, UK) and antibiotics (100 U/mL penicillin and 100 μg/mL streptomycin) (Sigma, St. Louis, MO), at 37 °C in a humidified atmosphere with 5% CO2. Human normal colon epithelial cells, CCD 841 CoTr (ATCC no. CRL-1807), were cultured in RPMI 1640 + dulbecco’s modified eagle medium (DMEM) (1:1) medium (Sigma, St. Louis, MO), supplemented with 10% FCS and antibiotics, at 34 °C in a 5% CO2/95% air atmosphere. Human glioblastoma T98G cells were cultured in Dulbecco’s Modified Eagle’s Medium (DMEM) (Sigma Aldrich, St. Louis, MO, USA), supplemented with 10% fetal bovine serum (FBS), penicillin (100 U/mL), and streptomycin (100 μg/mL). Human hepatocellular carcinoma cells, HepG2, were maintained in Eagle’s Minimum Essential Medium, supplemented with 10% FBS, penicillin (100 U/mL), and streptomycin (100 μg/mL).
(§4) After 24 h of incubation of the cells with the tested compounds in 100 μL of culture medium, MTT solution (5 mg/mL, 25 μL/well) was added and incubated for an additional 3 h. The purple crystals of formazan which formed in the medium were solubilized overnight in 10% sodium dodecyl sulphate (SDS) in a 0.01 M HCl mixture. The product was quantified spectrophotometrically by measuring its absorbance at 570 nm using an Emax Microplate Reader (Molecular Devices Corporation, Menlo Park, CA, USA).

HepG2 cells = experiment: MTT assay, HepG2; assay type: cell-based, human; details: for IC50: Homo sapiens, HepG2, MTT, 24 h treatment, mean ± SD; for SI (selectivity index): IC50 CCD 841 CoTr divided by IC50 HepG2
Procedure: as §1, §2, §3, §4

HT29 cells [1] = experiment: MTT assay, HT29; assay type: cell-based, human; details: for IC50: Homo sapiens, HT-29, HT29, MTT, 24 h treatment, mean ± SD; for SI (selectivity index): IC50 CCD 841 CoTr divided by IC50 HT29
Procedure: as §1, §2, §3, §4

CCD 841 CoTr cells [2] = experiment: MTT assay, normal colon epithelial cells; assay type: cell-based; details: Homo sapiens, CCD 841 CoTr (noncancerous), 24 h treatment, mean ± SD
Procedure: as §1, §2, §3, §4

CCD 841 CoTr cells [3] = experiment: Nitric oxide measurement (Griess), CCD 841 CoTr; assay type: cell-based, human; details: 200 μg/mL
Procedure: (§5) Nitrate, i.e., a stable end product of NO, was measured in culture supernatants with a spectrophotometric method based on the Griess reaction. Culture supernatants were collected from the cell cultures treated with specific concentrations of the tested compounds (25, 75, 150, and 200 μg/mL, respectively). Briefly, 100 μL of the culture supernatant was placed in 96-well flat-bottomed plates in triplicate and incubated with 100 μL of Griess reagent (1% sulfanilamide/0.1% N-(1-naphthyl)ethylenediamine dihydrochloride) in 3% H3PO4 at room temperature for 10 min. The optical density was measured at 550 nm using a microplate reader. A standard curve was prepared using 0.5–25 μM sodium nitrite (NaNO2) for calibration.

HT29 cells [4] = experiment: Nitric oxide measurement (Griess), HT29; assay type: cell-based, human
Procedure: as §5

[5] = DPPH free radical scavenging test
From the text: (§6) Antioxidant activity is a complex procedure, usually happening through several multiple or predominant chemical mechanisms (i.e., hydrogen atom transfer (HAT), single electron transfer (SET), and the ability to chelate transition metals), and it is influenced by many factors, which cannot be fully described with one single method. Therefore, it is important to perform more than one type of measurement to take into account the various mechanisms of antioxidant action. In this study, to assess the antioxidant activity of TZD–TSCs 2–5, two complementary tests were used: a DPPH (2,2-diphenyl-1-picrylhydrazyl) free radical-scavenging ability assay, that detects the HAT and SET mechanisms, and a FRAP (ferric reducing antioxidant power) assay, that prefers the […] mechanism. The antioxidant powers of 2–5 were compared to standard antioxidants, such as the water-soluble synthetic analogue of vitamin E (Trolox) and ascorbic acid (vitamin C).
The free radical scavenging activity of […] was measured by the DPPH assay. Briefly, 100 μl of DPPH solution (0.2 mg/mL in ethanol) was added to 100 μL of the tested compound concentrations (25, 75, 150, and 200 μg/mL, respectively). Trolox, at increasing concentrations (1–50 μg/mL), was used as a standard. After 20 min of incubation at room temperature, the absorbances of the solutions were measured at 515 nm. The lower the absorbance, the higher the free radical scavenging activity of the compound. The activity of each compound was determined by comparing its absorbance with that of the standard.
The ability of the compounds to scavenge the DPPH radical was calculated by the following formula:DPPH scavenging effect (%) = [(Xcontrol − Xcompound/Xcontrol) × 100], where Xcontrol is the absorbance of the control and Xcompound is the absorbance in the presence of TZD-TSCs preparations.

[6] = Ferric-reducing antioxidant power (FRAP) assay
From the text: as §6
Each compound concentration (25, 75, 150, and 200 μg/mL, respectively) was dissolved in Milli-Q water and mixed with an equal volume of 0.2 M sodium phosphate buffer (pH 6.6) and 1% potassium ferricyanide. The mixture was incubated for 30 min at 37 °C. Thereafter, 10% trichloroacetic acid (w/v) was added and the mixture was centrifuged at 1000 g for 5 min. One mL of the upper layer was mixed with an equal volume of Milli-Q water and 0.1% ferric chloride. The absorbance was read at 700 nm using an EL800 Universal Microplate Reader (BioTek Instruments, Winooski, VT, USA). Ascorbic acid (0–150 μg/mL) was used as a positive control.

CEM cells = test system: CEM cells; parameters: method as in PMID 34006099; details: read-out: IC50, antiproliferative effects against CEM cells; cited from earlier work
PPARγ = test system: PPARγ; parameters: method as in PMID 34006099; details: cited from earlier work
HDAC4 = test system: HDAC4; parameters: method as in PMID 34006099; details: cited from earlier work

## COc1cc([C@@H]2c3cc4c(cc3[C@@H](O[C@@H]3O[C@@H]5CO[C@@H](C)O[C@H]5[C@H](O)[C@H]3O)[C@H]3COC(=O)[C@H]23)OCO4)cc(OC)c1O [Etoposide, reference compound]
T98G cells
  IC50: > 160 µM
HepG2 cells
  IC50: 61.9 ± 2.97 µM
HT29 cells [1]
  IC50: 161 ± 8.51 µM

## O=C(C=C1SC(=O)NC1=O)Oc1cccc(C=NNC(=S)Nc2ccccc2Cl)c1 [TZD–TSC 4]
T98G cells
  IC50: 42.4 ± 2.23 µM
  SI (selectivity index): 2.06
HepG2 cells
  IC50: 20.1 ± 1.19 µM
  SI (selectivity index): 4.34
HT29 cells [1]
  IC50: 117 ± 9.37 µM
  SI (selectivity index): 0.75
CCD 841 CoTr cells [2]
  IC50: 87.3 ± 5.06 µM
CCD 841 CoTr cells [3]
  NO production, [NO2^−]: 0.639 µM
HT29 cells [4]; HT29, 25 μg/mL
  NO production, [NO2^−]: 0.558 µM
[5]; compound at 25 μg/mL
  DPPH reduction value corresponding to concentration of Trolox: 2.834 µg/mL
[5]; compound at 75 μg/mL
  DPPH reduction value corresponding to concentration of Trolox: 6.381 µg/mL
[5]; compound at 150 μg/mL
  DPPH reduction value corresponding to concentration of Trolox: 13.982 µg/mL
[5]; compound at 200 μg/mL
  DPPH reduction value corresponding to concentration of Trolox: 17.638 µg/mL
[6]; compound at 25 μg/mL
  FRAP reduction value corresponding to concentration of ascorbic acid: 1.62 µg/mL
[6]; compound at 75 μg/mL
  FRAP reduction value corresponding to concentration of ascorbic acid: 5.95 µg/mL
[6]; compound at 150 μg/mL
  FRAP reduction value corresponding to concentration of ascorbic acid: 4.05 µg/mL
[6]; compound at 200 μg/mL
  FRAP reduction value corresponding to concentration of ascorbic acid: 5.41 µg/mL

## O=C(C=C1SC(=O)NC1=O)Oc1ccc(C=NNC(=S)Nc2ccc(Cl)cc2Cl)cc1 [TZD–TSC 5]
T98G cells
  IC50: 93.6 ± 3.45 µM
  SI (selectivity index): 0.79
HepG2 cells
  IC50: 13.9 ± 0.59 µM
  SI (selectivity index): 5.35
HT29 cells [1]
  IC50: 119 ± 10.7 µM
  SI (selectivity index): 0.62
CCD 841 CoTr cells [2]
  IC50: 74.2 ± 2.3 µM
CCD 841 CoTr cells [3]
  NO production, [NO2^−]: 0.272 µM
HT29 cells [4]; HT29, 25 μg/mL
  NO production, [NO2^−]: ~ 0.272 μM
HT29 cells [4]; HT29, 200 μg/mL
  NO production, [NO2^−]: ~ 0.272 μM
[5]; compound at 25 μg/mL
  DPPH reduction value corresponding to concentration of Trolox: 0.768 µg/mL
[5]; compound at 75 μg/mL
  DPPH reduction value corresponding to concentration of Trolox: 2.689 µg/mL
[5]; compound at 150 μg/mL
  DPPH reduction value corresponding to concentration of Trolox: 9.964 µg/mL
[5]; compound at 200 μg/mL
  DPPH reduction value corresponding to concentration of Trolox: 15.177 µg/mL
[6]; compound at 25 μg/mL
  FRAP reduction value corresponding to concentration of ascorbic acid: 2.70 µg/mL
[6]; compound at 75 μg/mL
  FRAP reduction value corresponding to concentration of ascorbic acid: 2.43 µg/mL
[6]; compound at 150 μg/mL
  FRAP reduction value corresponding to concentration of ascorbic acid: 4.59 µg/mL
[6]; compound at 200 μg/mL
  FRAP reduction value corresponding to concentration of ascorbic acid: 9.19 µg/mL

## O=C(COc1ccc2cc(/C=C3/SC(=O)NC3=O)ccc2c1)Nc1c(F)cc(F)cc1Br [compound 1]
CEM cells
  IC50: 9.6 µM
PPARγ
  Activity toward PPARγ: low micromolar concentration
HDAC4
  Activity toward HDAC4: low micromolar concentration
